Consider two molecules from patent US20240181068A1, “SELECTIVE NEUTRAL PH INHIBITOR OF CATHEPSIN B” (The Regents of the University of California, priority 2021, published 2024).

Each structure is given as a SMILES string.

Common to all, as to type: biochemical
Experiment [1] has as its target T1, cathepsin B in SHSY5Y human neuroblastoma cell homogenate (Homo sapiens, UniProt P07858).
T1 construct: endogenous in cells; host or cells: SH-SY5Y human neuroblastoma cells
As to the kind of experiment: Cathepsin B activity in neuroblastoma cell homogenates in presence of inhibitors. To be noted: inhibitor 1 μM, Z-Arg-Arg-AMC substrate, pH 5.5. The protocol:
Cathepsin B in human neuroblastoma cells treated with inhibitors. Neuroblastoma cells (human SHSY5Y) were grown in media consisting of 50% MEMalpha, 50% F12-K, 10% heat-inactivated FBS at 37° C. in an atmosphere of 95% air and 5% CO2. Firstly, cell homogenates were prepared by collection of cells in 0.32 M sucrose and freeze-thawing. Secondly, cells were incubated with Z-Arg-Lys-AOMK or CA-074Me for 6 hours at 37° C., and washed 3 times in phosphate-buffered saline and homogenates were prepared in 0.32 M sucrose with freeze-thawing. CA-074Me is a methyl ester form of the active CA-074 selective inhibitor of cathepsin B (70); CA-074Me penetrates the cell and is converted by intracellular esterases to CA-074.
Cathepsin B activity in the homogenates were monitored with Z-Arg-Arg-AMC substrate (60 μM) with buffer conditions of 40 mM citrate-phosphate, pH 5.5, 5 mM DTT, 1 mM EDTA, 100 mM NaCl, and 1.2% DMSO, followed by incubation at 37° C. for 30 minutes and reading of AMC fluorescence. CA-074-senstive activity was monitored to indicate cathepsin B activity, since CA-074 is a selective inhibitor of this enzyme (70). Protein content was measured in homogenates with the DC protein assay kit. Cathepsin B specific activity was calculated as nmol AMC/μg/min, and reported as the mean±SD (with analyses for statistical significance, p<0.05 by student's t-test).

Experiment [2] has as its target T2, cathepsin B (Homo sapiens, UniProt P07858).
T2 construct: purchased R&D Systems 953-CY-010
As to the kind of experiment: Cathepsin B inhibitor kinetic characterization, fluorogenic assay with Z-Phe-Arg-AMC. Conditions: cathepsin B. The protocol: Inhibitor kinetic characterization using fluorogenic assays for cathepsin B activity. Kinetic analyses of IC50, K1, kobs, and kinact/K1 values for Z-Arg-Lys-AOMK and Z-Glu-Lys-AOMK inhibition of cathepsin B were conducted by fluorogenic proteolytic assays consisting of 40 μM Z-Phe-Arg-AMC, 40 mM citrate phosphate at pH 7.2 or pH 4.6, 1 mM EDTA, 100 mM NaCl, 5 mM DTT, and 0.01% Tween 20; assays were performed at room temperature (22-27° C.) in quadruplicate. Inhibitor and substrate were combined in the reaction well, and the assay was started upon addition of cathepsin B (0.04 ng/μL). The inhibitor concentration ranged from 5.5 μM to 1.1 nM (1.5-fold serial dilution). A vehicle control assay contained 2% DMSO instead of inhibitor. Enzyme velocity (RFU/sec) was measured during a […] incubation period as relative fluorescent units per sec (RFU/s), calculated using the highest slope recorded for 10 consecutive readings taken at 46 sec intervals (thus, activity is calculated over a total of 460 sec). Prism software was used to analyze enzyme activity data in kinetic studies. IC50 values were calculated (without preincubation of inhibitor and enzyme) as the concentration of inhibitor that reduced cathepsin B activity by 50%.
For determination of K1 and kinact/K1 kinetic inhibition constants, kobs constants were determined by plots of cathepsin B activity in time courses with different inhibitor concentrations by curve fitting slope data of RFU versus time into Y=Y0*e^(−kobs*^X), where Y0 is the activity for the control with no inhibitor condition, Y is the activity in the presence of inhibitor, X is time. K1 and kinact values were calculated from curve fitting the kobs values into the equation kobs=kinact*[I]/(K1+[I]), where [I] is inhibitor concentration, and K1 is the x-axis inhibitor concentration where y=kinact/2 and kinact is the maximum rate of inactivation at saturating inhibitor concentrations (93, 94). These kinetic analyses are for irreversible inhibitors, Z-Arg-Lys-AOMK and Z-Glu-Lys-AOMK of this study, that utilize Ki values, rather than Ki values used for reversible inhibitors (93).

A further experiment addresses T3, cathepsin C (Homo sapiens, UniProt P53634).
T3 construct: purchased R&D Systems 1071-CY-010
As to the kind of experiment: Specificity of inhibitors: cathepsin C (Gly-Arg-AMC substrate). To be noted: pH 7.2, from IC50. The protocol:
(§1) Specificity of inhibitors for other cysteine cathepsin proteases. The effects of Z-Arg-Lys-AOMK and Z-Glu-Lys-AOMK on cathepsin V, L, K, S, X, H and C activities were assessed. IC50 values were calculated at pH 4.6 and pH 7.2 conditions, consisting of 40 mM citrate phosphate, 1 mM EDTA, 100 mM NaCl, and 5 mM DTT. The inhibitor concentrations ranged from 16.38 μM to 256 nM with 2-fold serial dilutions. […] Cathepsin V (0.04 ng/μL), cathepsin L (0.03 ng/μL), cathepsin K (0.10 ng/μL), cathepsin S (0.20 ng/uL) were assayed with 40 μM Z-Phe-Arg-AMC. Cathepsin X (0.20 ng/uL), cathepsin C (0.51 ng/uL) and cathepsin H (0.1 ng/μL) were assayed with 40 μM of MCA-Arg-Pro-Pro-Gly-Phe-Ser-Ala-Phe-Lys(Dnp)OH (SEQ ID NO: 2), Gly-Arg-AMC, and Arg-AMC, respectively. Activation of pro-cathepsin H to cathepsin H was conducted by incubation of cathepsin H (4.4 ng/μL) with cathepsin L (1.1 ng/μL) at RT for 2 hrs in activation buffer (20 mM citrate phosphate pH 6.0, 100 mM NaCl, and 5 mM DTT). Cathepsin C (13.78 ng/μL) was activated by incubation with cathepsin L (3.4 ng/μL) at RT for one hr in activation buffer (20 mM citrate phosphate, pH 6.0, 100 mM NaCl, 5 mM DTT). […] For all assays containing peptide-AMC substrates the fluorescent microplate reader settings were the same as outlined above for cathepsin B. For the cathepsin X assay, the plate reader was set to excitation 320 nm, emission 400 nm, gain 105, top optics and read height 1 mm. To convert RFU/s to picomol/min, 10 μM to 0.005 μM (2-fold serial dilution) of MCA-Arg-Pro-Pro-Gly-Phe-Ser-Ala-Phe-Lys(Dnp)OH (SEQ ID NO: 2) was fully hydrolyzed with excess cathepsin X and a standard curve was generated using the total fluorescence values calculated at each concentration.

The target in the next experiment is T4, cathepsin H (Homo sapiens, UniProt P09668).
T4 construct: purchased R&D Systems 75116-CY-010
In words: Specificity of inhibitors: cathepsin H (Arg-AMC substrate). Conditions: cathepsin H. The protocol:
as §1

For a further experiment, the target named is T5, cathepsin K (Homo sapiens, UniProt P43235).
T5 construct: purchased Abcam ab157067
T5 sequence (P43235 115-329): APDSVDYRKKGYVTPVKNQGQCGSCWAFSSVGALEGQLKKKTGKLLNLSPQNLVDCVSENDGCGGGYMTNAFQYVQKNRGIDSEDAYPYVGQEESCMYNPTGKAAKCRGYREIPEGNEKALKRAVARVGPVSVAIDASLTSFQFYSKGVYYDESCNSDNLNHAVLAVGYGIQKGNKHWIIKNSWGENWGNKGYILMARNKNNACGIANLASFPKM
In words: Specificity of inhibitors: cathepsin K (Z-Phe-Arg-AMC substrate). Conditions: cathepsin K. The protocol: as §1

The next experiment addresses T6, cathepsin L (Homo sapiens, UniProt P07711).
T6 construct: purchased R&D Systems 952-CY-010
In words: Specificity of inhibitors: cathepsin L (Z-Phe-Arg-AMC substrate). Conditions: cathepsin L. The protocol:
as §1

A further experiment concerns the target T7, cathepsin S (Homo sapiens, UniProt P25774).
T7 construct: purchased R&D Systems 1183-CY-010
In words: Specificity of inhibitors: cathepsin S (Z-Phe-Arg-AMC substrate). Conditions: cathepsin S. The protocol:
as §1

Another experiment concerns the target T8, cathepsin V (Homo sapiens, UniProt O60911).
T8 construct: purchased R&D Systems 1080-CY-010
As to the kind of experiment: Specificity of inhibitors: cathepsin V (Z-Phe-Arg-AMC substrate). Conditions: cathepsin V. The protocol: as §1

The target in a further experiment is cathepsin X (Homo sapiens, UniProt Q9UBR2). As to the kind of experiment: Specificity of inhibitors: cathepsin X (MCA peptide substrate). To be noted: cathepsin X, pH 4.6. The protocol: as §1
Experiment [3] addresses T2, cathepsin B. As to the kind of experiment: Irreversible mechanism of inhibitors (pre-incubation, dilution, activity). To be noted: pH 4.6. The protocol: Irreversible mechanism of inhibitors. The irreversible or reversible mechanism of cathepsin B inhibition was assessed for Z-Arg-Lys-AOMK and Z-Glu-Lys-AOMK inhibitors. At pH 7.2, cathepsin B was incubated with 190 nM Z-Arg-Lys-AOMK and 4.99 μM Z-Glu-Lys-AOMK for 15 min in pH 7.2 assay buffer and the assay was performed as described above for pH 4.6. Proteolytic activity was monitored for 2 hr. At pH 4.6, cathepsin B (activated, 3.7 ng/μL) was incubated with 4.24 μM Z-Arg-Lys-AOMK and 3.48 μM Z-Glu-Lys-AOMK for 15 min in 40 mM citrate phosphate pH 4.6, 1 mM EDTA, 100 mM NaCl, and 5 mM DTT; a vehicle control contained 2.5% DMSO. Each reaction was then diluted 100-fold in assay buffer such that the final assay composition was 0.04 ng/μL cathepsin B, 40 μM Z-Phe-Arg-AMC, and an inhibitor concentration of 1/10th the IC50 value.

T7 sequence (P25774 115-331): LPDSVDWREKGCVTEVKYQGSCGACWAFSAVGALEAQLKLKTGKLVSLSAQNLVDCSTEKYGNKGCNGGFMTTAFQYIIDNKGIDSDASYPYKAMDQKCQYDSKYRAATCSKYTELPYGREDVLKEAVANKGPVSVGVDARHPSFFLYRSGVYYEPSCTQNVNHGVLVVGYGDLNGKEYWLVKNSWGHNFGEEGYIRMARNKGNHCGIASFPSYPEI
T4 sequence (P09668 116-335 limits assumed, other chains not shown): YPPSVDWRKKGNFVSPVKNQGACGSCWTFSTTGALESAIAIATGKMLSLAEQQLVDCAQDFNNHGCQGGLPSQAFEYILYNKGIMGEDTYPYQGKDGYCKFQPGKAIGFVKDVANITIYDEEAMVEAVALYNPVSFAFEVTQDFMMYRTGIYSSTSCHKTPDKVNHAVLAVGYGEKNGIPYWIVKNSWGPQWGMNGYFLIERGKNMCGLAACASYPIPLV
T6 sequence (P07711 114-333): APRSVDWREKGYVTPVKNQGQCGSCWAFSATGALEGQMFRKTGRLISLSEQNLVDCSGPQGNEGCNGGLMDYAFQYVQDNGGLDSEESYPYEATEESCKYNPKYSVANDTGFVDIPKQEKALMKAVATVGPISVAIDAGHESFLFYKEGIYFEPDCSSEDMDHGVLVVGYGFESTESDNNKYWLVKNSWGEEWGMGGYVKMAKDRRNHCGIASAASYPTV
T8 sequence (O60911 114-334): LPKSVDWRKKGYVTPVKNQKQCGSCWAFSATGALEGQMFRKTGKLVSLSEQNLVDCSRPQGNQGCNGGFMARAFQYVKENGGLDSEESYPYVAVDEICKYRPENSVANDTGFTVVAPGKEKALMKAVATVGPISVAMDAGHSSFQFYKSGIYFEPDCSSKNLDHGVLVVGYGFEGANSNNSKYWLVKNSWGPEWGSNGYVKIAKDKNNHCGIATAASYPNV
T3 sequence (P53634 25-134 limits assumed): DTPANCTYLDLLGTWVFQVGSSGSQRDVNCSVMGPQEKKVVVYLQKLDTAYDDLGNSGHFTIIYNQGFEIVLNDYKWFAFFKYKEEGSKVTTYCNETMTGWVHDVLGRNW
T3 sequence (P53634 231-394 limits assumed): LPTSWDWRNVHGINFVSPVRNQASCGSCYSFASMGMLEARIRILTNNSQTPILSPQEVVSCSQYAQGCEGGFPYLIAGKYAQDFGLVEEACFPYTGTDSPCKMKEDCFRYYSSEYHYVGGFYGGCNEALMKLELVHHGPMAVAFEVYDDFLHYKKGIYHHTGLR
T3 sequence (P53634 395-463 limits assumed): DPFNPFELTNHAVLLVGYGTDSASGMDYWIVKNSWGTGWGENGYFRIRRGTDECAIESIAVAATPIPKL
Chain of cathepsin X (Q9UBR2 62-303): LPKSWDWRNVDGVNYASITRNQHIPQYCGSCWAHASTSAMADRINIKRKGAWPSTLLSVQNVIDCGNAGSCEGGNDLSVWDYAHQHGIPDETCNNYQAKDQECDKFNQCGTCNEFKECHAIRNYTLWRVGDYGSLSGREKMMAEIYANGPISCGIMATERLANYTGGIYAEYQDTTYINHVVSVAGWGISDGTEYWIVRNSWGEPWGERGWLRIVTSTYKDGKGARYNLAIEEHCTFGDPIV

`CCCNC(=O)[C@H]1O[C@@H]1C(=O)N[C@H](C(=O)N1CCC[C@H]1C(=O)O)[C@@H](C)CC` [CA-074, reference compound]: in experiment [1], the “inhibition of proteolytic (cathepsin B) activity in cell lysate” value is on record as “completely inhibited”.

For the molecule `Cc1cccc(C)c1C(=O)OCC(=O)C(CCCCN)NC(=O)C(CCC(=O)O)NC(=O)OCc1ccccc1` (stereo not drawn) [Z-Glu-Lys-AOMK], the kinact/KI (commonly the second-order rate constant of inactivation) on cathepsin B [2] (pH 4.6) turned out to be 2000 M⁻¹ s⁻¹; at cathepsin B [2] (pH 7.2), 8200 M⁻¹ s⁻¹. In addition, the Ki on cathepsin B [2] (pH 4.6, irreversible inhibitor) was 7.9 µM; on cathepsin B [2] (pH 7.2, irreversible inhibitor), 2.3 µM. The IC50 (commonly the midpoint of a concentration-inhibition curve) at cathepsin B [2] (pH 4.6, without preincubation) is 1.1 µM; on cathepsin B [2] (pH 7.2, without preincubation), 0.32 µM; against cathepsin H (pH 4.6) it was more than 16 µM; at cathepsin H (pH 7.2) it was more than 16 µM; against cathepsin K (pH 4.6), more than 16 µM; at cathepsin K (pH 7.2), more than 16 µM. In addition, the IC50 on cathepsin L (pH 4.6), at cathepsin S (pH 4.6), against cathepsin S (pH 7.2), against cathepsin V (pH 7.2) and against cathepsin X was more than 16 µM in each case. The “fold more potent for cathepsin B than cathepsin C” value at cathepsin C is 38 fold. Moreover, the inhibition – broadly, the share of the control response that was lost under treatment – at 16 µM turned out to be 10% against cathepsin K (pH 4.6, 16,000 nM inhibitor); 23% at cathepsin L (pH 4.6, 16,000 nM inhibitor); 26% against cathepsin S (pH 4.6, 16,000 nM inhibitor); 30% against cathepsin S (pH 7.2, 16,000 nM inhibitor); 10% on cathepsin V (pH 7.2, 16,000 nM inhibitor). The “cathepsin B activity after pre-incubation and dilution of inhibitor” value at cathepsin B [3] is “no cathepsin B activity”.
